Series [1] is described as follows: Kinetic solubility of the compound in buffer at pH 7.4 after 16 to 19 hrs by UV absorbance assay. The format is physicochemical. The settings on record: read-out: Kinetic_solubility.
Series [2] deals with Sphingosine 1-phosphate receptor 1 (Homo sapiens, UniProt P21453). Put plainly: Agonist activity at human S1P1 receptor expressed in EDG1-bla U2OS cells incubated for 18 hrs prior to GenBlazer substrate addition by beta-arrestin recruitment assay. The series is classed as cell-based. In general terms: Recruitment of arrestin is a read-out of receptor activation apart from second messengers.
Chain of Sphingosine 1-phosphate receptor 1 (P21453 whole entry): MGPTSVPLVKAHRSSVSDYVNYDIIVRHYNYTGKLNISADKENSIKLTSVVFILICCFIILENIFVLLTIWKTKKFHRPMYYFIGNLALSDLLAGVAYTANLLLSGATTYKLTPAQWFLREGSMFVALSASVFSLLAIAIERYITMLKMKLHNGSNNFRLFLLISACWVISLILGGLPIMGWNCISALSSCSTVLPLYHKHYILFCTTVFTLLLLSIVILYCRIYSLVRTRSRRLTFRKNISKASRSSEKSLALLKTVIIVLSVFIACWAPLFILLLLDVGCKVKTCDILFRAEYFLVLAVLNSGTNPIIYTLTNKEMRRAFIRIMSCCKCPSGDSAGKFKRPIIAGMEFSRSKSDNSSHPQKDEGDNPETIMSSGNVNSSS

Series [3] in a line: Ratio of drug level in brain to plasma (unknown origin). The series is classed as ADME, cell-free. The settings on record: read-out: BPR.
A short description of series [4]: Equilibrium solubility of the compound in citric acid monohydrate/Na2HPO4 dihydrate buffer at pH 6.8 after 24 hrs by RP-HPLC analysis. The format is physicochemical.
Series [5] deals with Sphingosine 1-phosphate receptor 5 (Homo sapiens, UniProt Q9H228). Put plainly: Agonist activity at human S1P5 receptor expressed in EDG8-bla U2OS cells incubated for 18 hrs prior to GenBlazer substrate addition by beta-arrestin recruitment assay. The series is classed as cell-based.
Chain of Sphingosine 1-phosphate receptor 5 (Q9H228 whole entry): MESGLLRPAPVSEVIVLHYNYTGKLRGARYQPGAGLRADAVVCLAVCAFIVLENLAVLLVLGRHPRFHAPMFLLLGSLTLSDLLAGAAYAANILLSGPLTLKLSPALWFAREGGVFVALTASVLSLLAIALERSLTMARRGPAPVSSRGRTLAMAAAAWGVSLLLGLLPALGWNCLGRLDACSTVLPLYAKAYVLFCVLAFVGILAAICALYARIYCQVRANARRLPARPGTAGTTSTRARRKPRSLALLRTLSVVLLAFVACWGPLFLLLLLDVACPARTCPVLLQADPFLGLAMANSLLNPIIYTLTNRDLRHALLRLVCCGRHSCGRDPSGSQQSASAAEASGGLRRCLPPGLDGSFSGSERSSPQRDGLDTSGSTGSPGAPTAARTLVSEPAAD
Another series is filed under the species Homo sapiens. Put plainly: Selectivity ratio of EC50 for human S1P5 receptor to EC50 for human S1P1 receptor.
The target of series [6] is Sphingosine 1-phosphate receptor 3 (Homo sapiens, UniProt Q99500). Put plainly: Agonist activity at human S1P3 receptor expressed in EDG3-bla U2OS cells incubated for 18 hrs prior to GenBlazer substrate addition by beta-arrestin recruitment assay. The format is cell-based.
Chain of Sphingosine 1-phosphate receptor 3 (Q99500 whole entry): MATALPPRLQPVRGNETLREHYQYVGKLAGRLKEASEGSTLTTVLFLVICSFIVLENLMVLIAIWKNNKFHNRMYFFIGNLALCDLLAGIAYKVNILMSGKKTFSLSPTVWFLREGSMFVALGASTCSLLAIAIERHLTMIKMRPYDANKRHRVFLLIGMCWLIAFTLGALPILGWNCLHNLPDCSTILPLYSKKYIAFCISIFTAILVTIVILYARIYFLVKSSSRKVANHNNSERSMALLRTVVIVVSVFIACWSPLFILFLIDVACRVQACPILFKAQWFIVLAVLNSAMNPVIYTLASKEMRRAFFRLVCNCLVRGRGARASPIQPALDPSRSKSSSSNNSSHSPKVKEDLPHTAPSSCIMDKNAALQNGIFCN
The next series deals with HepG2. Put plainly: Toxicity in human HepG2 cells assessed as phospholipidosis at 0.1 to 200 uM after 48 hrs by Hoechst […] staining-based lipidTOX assay. The series is classed as cell-based. The settings on record: hepg2, 48 h.

Converted amounts (≈) assume the structure as drawn. Where only a bound is given, the exact number is not on record here.

By EC50 is commonly meant the concentration needed to bring the measured effect to its halfway point. For orientation: thermodynamic solubility means the concentration in solution at equilibrium with solid. On to `Cc1nc(CC(C)C)cc(-c2nc(-c3ccc(O[C@@H]4CCC(=O)NC4)c(F)c3)no2)n1`, for which the solubility kinetic in series [1] was greater than 0.04 mg/mL. In addition, the EC50 was 0.05 µM in series [2], 0.36 µM in series [5] and greater than 10 µM in series [6]. Besides, the Kp in series [3] stood at 0.1. The same molecule had a thermodynamic solubility at 24 h in series [4] of 0.027 mg/mL (≈ 63.5 µM). Moreover, the Ratio EC50 in the series filed under Homo sapiens was 7.

Take `Cc1cc(-c2nc(-c3cc(F)c(OC[C@H]4COC(=O)N4)cc3Cl)no2)cc(NC(C)C)n1`: the solubility kinetic in series [1] was found to be 0.0001 mg/mL (≈ 0.217 µM). Moreover, the EC50 in series [2] came to 0.0006 µM. The Activity entry with HepG2 is reported as “Non-toxic”.
